From patent US20090069373A1, “Quinoline Acids” (Wyeth, priority 2007, published 2009) come the findings set out here.

The target of one assay is T1, human LXRβ (Homo sapiens, UniProt P55055).
T1 construct: biotin (biotinylated; biotinylation tag not described); made in house; host or cells: E. coli
T1 sequence (P55055 1-460): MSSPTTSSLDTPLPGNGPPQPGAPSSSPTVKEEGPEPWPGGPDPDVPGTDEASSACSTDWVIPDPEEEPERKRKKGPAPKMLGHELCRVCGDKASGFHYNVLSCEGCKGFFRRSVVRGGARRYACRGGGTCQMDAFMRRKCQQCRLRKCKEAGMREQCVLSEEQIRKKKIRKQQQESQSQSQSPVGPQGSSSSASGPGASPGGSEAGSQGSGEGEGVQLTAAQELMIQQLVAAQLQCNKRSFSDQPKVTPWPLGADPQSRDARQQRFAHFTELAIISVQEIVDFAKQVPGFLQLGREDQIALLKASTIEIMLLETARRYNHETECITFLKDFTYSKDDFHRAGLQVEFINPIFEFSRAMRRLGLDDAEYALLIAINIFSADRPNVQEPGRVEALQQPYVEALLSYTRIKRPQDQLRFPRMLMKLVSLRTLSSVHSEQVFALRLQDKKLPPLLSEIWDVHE
The experiment in a line: Ligand-binding test procedure for human LXRβ (3H T0901317 competition, flash plates). The conditions noted are these: for Binding ratio a/b: IC50 (μM) LXRα binding/IC50 (μM) LXRβ binding; for IC50: biotinylated hLXRβ, tracer 3H T0901317. As to the method:
Ligand-Binding Test Procedure for Human LXRβ.
Receptor source: E. coli extract from cells expressing biotinylated hLXRβ. Extract was made in a similar buffer as above, but with 50 mM TRIS.
(§1) Washed streptavidin and coated flash plates with wash buffer.
(§2) Diluted receptor extract to give Bmax ˜4000 cpm and add to the wells.
(§3) Wrapped the plates in aluminum foil and stored them at +4° C. over night.
(§4) Made a dilution series in DMSO of the test ligands.
(§5) Made a 5 nM solution of the radioactive tracer in buffer.
(§6) Mixed 250 μl diluted tracer with 5 μl of the test ligand from each concentration of the dilution series.
(§7) Washed the receptor-coated flash plates.
(§8) Added 200 μl per well of the ligand/radiolabel mixture to the receptor-coated flash plates.
(§9) Wrapped the plates in aluminum foil and incubate at +4° C. over night.
(§10) Aspirated wells, and wash the flashed plates. Sealed the plate.
(§11) Measured the remaining radioactivity in the plate.

Another assay concerns the target T2, human LXRα (Homo sapiens, UniProt Q13133).
T2 construct: biotin (biotinylated; biotinylation tag not described); made in house; host or cells: E. coli
T2 sequence (Q13133 1-447): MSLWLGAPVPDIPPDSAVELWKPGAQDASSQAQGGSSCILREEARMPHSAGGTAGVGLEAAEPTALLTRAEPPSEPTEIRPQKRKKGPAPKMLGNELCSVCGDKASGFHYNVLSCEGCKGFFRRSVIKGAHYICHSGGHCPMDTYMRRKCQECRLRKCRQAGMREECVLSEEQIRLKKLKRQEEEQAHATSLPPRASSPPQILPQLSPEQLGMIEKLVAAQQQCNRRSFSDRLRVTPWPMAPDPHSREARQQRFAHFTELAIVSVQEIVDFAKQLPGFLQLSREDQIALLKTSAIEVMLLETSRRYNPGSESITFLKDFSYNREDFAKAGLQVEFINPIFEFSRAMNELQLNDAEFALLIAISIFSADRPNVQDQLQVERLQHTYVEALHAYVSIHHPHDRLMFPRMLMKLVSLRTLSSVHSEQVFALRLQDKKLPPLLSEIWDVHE
Briefly: Ligand-binding test procedure for human LXRα (3H T0901317 competition, flash plates). The conditions noted are these: biotinylated hLXRα, tracer 3H T0901317. As to the method: Ligand-Binding Test Procedure for Human LXRα.
Receptor source: E. coli extract from cells expressing biotinylated hLXRα. Extract was made in a similar buffer as above, but with 50 mM TRIS.
as §1, §2, §3, §4, §5, §6, §7, §8, §9, §10, §11

Take `O=C(O)Cc1cccc(NCc2cccc(-c3c(Cc4ccccc4)cnc4c(C(F)(F)F)cccc34)c2)c1` [Example 30, [3-({3-[3-benzyl-8-(trifluoromethyl)quinolin-4-yl]benzyl}amino)phenyl]acetic acid]: on human LXRβ, the Binding ratio a/b stood at 8 and the IC50 turned out to be 9 nM. Further, at human LXRα, the IC50 was 72 nM.

As for `O=C(O)c1cccc2c(NCc3cncc(-c4c(Cc5ccccc5)cnc5c(C(F)(F)F)cccc45)c3)cccc12` [Example 31, 5-[({5-[3-benzyl-8-(trifluoromethyl)quinolin-4-yl]pyridin-3-yl}methyl)amino]-1-naphthoic acid], on human LXRβ, the Binding ratio a/b was 8 and the IC50 was 210 nM. On human LXRα, the IC50 came to 1740 nM.

Regarding `Cc1cc(NCc2ccsc2-c2c(Cc3ccccc3)cnc3c(C(F)(F)F)cccc23)c(C)cc1CC(=O)O` [Example 32, {4-[({2-[3-benzyl-8-(trifluoromethyl)quinolin-4-yl]-3-thienyl}methyl)amino]-2,5-dimethylphenyl}acetic acid], on human LXRβ, the Binding ratio a/b is given as 8 and the IC50 stood at 427 nM. On human LXRα, this molecule returned an IC50 of 3330 nM.

As to `Cc1ccc(C(=O)O)c(NCc2cccc(-c3c(Cc4ccccc4)cnc4c(C(F)(F)F)cccc34)c2)c1` [Example 33, 2-({3-[3-benzyl-8-(trifluoromethyl)quinolin-4-yl]benzyl}amino)-4-methylbenzoic acid], on human LXRβ, the Binding ratio a/b came to 8. Moreover, the IC50 on human LXRβ came out at 166 nM; on human LXRα it was 1290 nM.

Turning to `Cc1ccc(CC(=O)O)c(NCc2cccc(-c3c(Cc4ccccc4)cnc4c(C(F)(F)F)cccc34)c2)c1C` [Example 35, [2-({3-[3-benzyl-8-(trifluoromethyl)quinolin-4-yl]benzyl}amino)-3,4-dimethylphenyl]acetic acid], at human LXRβ, the Binding ratio a/b came to 7 and the IC50 was determined as 131 nM. The IC50 on human LXRα was found to be 961 nM.

Turning to `O=C(O)Cc1ccc(NCc2cncc(-c3c(Cc4ccccc4)cnc4c(C(F)(F)F)cccc34)c2)cc1` [Example 36, {4-[({5-[3-benzyl-8-(trifluoromethyl)quinolin-4-yl]pyridin-3-yl}methyl)amino]phenyl}acetic acid], at human LXRβ, the Binding ratio a/b is given as 7 and the IC50 was 191 nM. Also, the IC50 at human LXRα was determined as 1360 nM.

For `O=C(O)CC1CCCc2c(OCc3cccc(-c4c(Cc5ccccc5)cnc5c(C(F)(F)F)cccc45)c3)cccc21` (stereo not drawn) [Example 37, [5-({3-[3-benzyl-8-(trifluoromethyl)quinolin-4-yl]benzyl}oxy)-1,2,3,4-tetrahydronaphthalen-1-yl]acetic acid], on human LXRβ, the Binding ratio a/b was 7. Moreover, the figures for the IC50 at human LXRβ and on human LXRα were 19 nM and 131 nM, respectively.

For `O=C(O)CC1CCc2c(OCc3cccc(-c4c(Cc5ccccc5)cnc5c(C(F)(F)F)cccc45)c3)cccc21` (stereo not drawn) [Example 38, [4-({3-[3-benzyl-8-(trifluoromethyl)quinolin-4-yl]benzyl}oxy)-2,3-dihydro-1H-inden-1-yl]acetic acid], the Binding ratio a/b at human LXRβ is given as 7. Besides, the IC50 was determined as 8 nM on human LXRβ and 51 nM at human LXRα.

With `O=C(O)c1ccc2cc(OCc3cccc(-c4c(Cc5ccccc5)cnc5c(C(F)(F)F)cccc45)c3)ccc2c1` [Example 39, 6-({3-[3-benzyl-8-(trifluoromethyl)quinolin-4-yl]benzyl}oxy)-2-naphthoic acid], the Binding ratio a/b on human LXRβ came out at 7. Also, the IC50 turned out to be 101 nM on human LXRβ and 683 nM on human LXRα.

As for `O=C(O)C1CCN(C(=O)c2cccc(COc3cccc(-c4c(Cc5ccccc5)cnc5c(C(F)(F)F)cccc45)c3)c2)CC1` [Example 40, 1-[3-({3-[3-benzyl-8-(trifluoromethyl)quinolin-4-yl]phenoxy}methyl)benzoyl]piperidine-4-carboxylic acid], the Binding ratio a/b at human LXRβ is listed as 7. In addition, the results for the IC50 at human LXRβ and at human LXRα were 84 nM and 559 nM, respectively.

For `O=C(O)c1ccc(F)cc1NCc1cccc(-c2c(Cc3ccccc3)cnc3c(C(F)(F)F)cccc23)c1` [Example 41, 2-({3-[3-benzyl-8-(trifluoromethyl)quinolin-4-yl]benzyl}amino)-4-fluorobenzoic acid], on human LXRβ, the Binding ratio a/b is 7 and the IC50 came to 50 nM. At human LXRα, the 50% inhibitory concentration (IC50) stood at 331 nM.

For `O=C(O)CCc1cccc(NCc2cccc(-c3c(Cc4ccccc4)cnc4c(C(F)(F)F)cccc34)c2)c1` [Example 43, 3-[3-({3-[3-benzyl-8-(trifluoromethyl)quinolin-4-yl]benzyl}amino)phenyl]propanoic acid], on human LXRβ, the Binding ratio a/b was determined as 6 and the IC50 is 2 nM. In addition, the IC50 at human LXRα turned out to be 15 nM.

On to `Cn1cc(C(=O)O)c2cccc(NCc3cccc(-c4c(Cc5ccccc5)cnc5c(C(F)(F)F)cccc45)c3)c21` [Example 44, 7-({3-[3-benzyl-8-(trifluoromethyl)quinolin-4-yl]benzyl}amino)-1-methyl-1H-indole-3-carboxylic acid], for which, at human LXRβ, the Binding ratio a/b is 6 and the IC50 was found to be 165 nM. The same molecule returned an IC50 at human LXRα of 1050 nM.

As for `COc1cc(C(=O)O)ccc1OCc1cccc(-c2c(Cc3ccccc3)cnc3c(C(F)(F)F)cccc23)c1` [Example 45, 4-({3-[3-benzyl-8-(trifluoromethyl)quinolin-4-yl]benzyl}oxy)-3-methoxybenzoic acid], at human LXRβ, the Binding ratio a/b is given as 6 and the IC50 amounted to 358 nM. In addition, the IC50 at human LXRα came out at 2260 nM.

As to `O=C(O)c1ccc2cc(NCc3cccc(-c4ccnc5c(C(F)(F)F)cccc45)c3)ccc2c1` [Example 46, 6-({3-[8-(trifluoromethyl)quinolin-4-yl]benzyl}amino)-2-naphthoic acid], on human LXRβ, the Binding ratio a/b came to 6 and the IC50 turned out to be 1300 nM. Moreover, the IC50 at human LXRα was found to be 8000 nM.

In the case of `Cc1cc(NCc2ccc(-c3c(Cc4ccccc4)cnc4c(C(F)(F)F)cccc34)s2)c(C)cc1CC(=O)O` [Example 47, {4-[({5-[3-benzyl-8-(trifluoromethyl)quinolin-4-yl]-2-thienyl}methyl)amino]-2,5-dimethylphenyl}acetic acid], at human LXRβ, the Binding ratio a/b is reported as 6 and the IC50 came to 2 nM. Further, the IC50 at human LXRα was 13 nM.

Take `O=C(O)c1cccc2c(NCc3cccc(-c4ccnc5c(C(F)(F)F)cccc45)c3)cccc12` [Example 48, 5-({3-[8-(trifluoromethyl)quinolin-4-yl]benzyl}amino)-1-naphthoic acid]: on human LXRβ, the Binding ratio a/b is on record as 6 and the IC50 worked out at 538 nM. In addition, the IC50 on human LXRα was determined as 3270 nM.

Take `O=C(O)c1c(NCc2cccc(-c3c(Cc4ccccc4)cnc4c(C(F)(F)F)cccc34)c2)cccc1C(F)(F)F` [Example 49, 2-({3-[3-benzyl-8-(trifluoromethyl)quinolin-4-yl]benzyl}amino)-6-(trifluoromethyl)benzoic acid]: on human LXRβ, the Binding ratio a/b was 6 and the IC50 stood at 66 nM. Further, on human LXRα, the IC50 was 393 nM.

With `O=C(O)Cc1ccc(NCc2cccc(-c3c(Cc4ccccc4)cnc4c(C(F)(F)F)cccc34)c2)cc1Cl` [Example 50, [4-({3-[3-benzyl-8-(trifluoromethyl)quinolin-4-yl]benzyl}amino)-2-chlorophenyl]acetic acid], on human LXRβ, the Binding ratio a/b is reported as 6. Further, the IC50 on human LXRβ worked out at 4 nM; at human LXRα, 20 nM.

As for `O=C(O)c1cccc(NCc2cccc(-c3c(Cc4ccccc4)cnc4c(C(F)(F)F)cccc34)c2)c1` [Example 51, 3-({3-[3-benzyl-8-(trifluoromethyl)quinolin-4-yl]benzyl}amino)benzoic acid], the Binding ratio a/b on human LXRβ turned out to be 6. The values for the IC50 at human LXRβ and on human LXRα were 209 nM and 1170 nM, respectively.

Regarding `O=C(O)c1ccc(F)c(NCc2cccc(-c3c(Cc4ccccc4)cnc4c(C(F)(F)F)cccc34)c2)c1` [Example 52, 3-({3-[3-benzyl-8-(trifluoromethyl)quinolin-4-yl]benzyl}amino)-4-fluorobenzoic acid], at human LXRβ, the Binding ratio a/b is given as 6 and the IC50 was determined as 249 nM. At human LXRα, the IC50 amounted to 1380 nM.

By IC50 is commonly meant the concentration that gives 50% inhibition.
